pIC50, pKd: −log10 of the molar value.
Columns and labels:
[1] = target: GDP-bound KRAS wild-type protein (Homo sapiens, UniProt P01116); assay: Binding to KRAS by surface plasmon resonance (SPR), Single Cycle Kinetics; settings: SPR, Single Cycle Kinetics, GDP-bound KRAS wild-type protein; read-out: KRAS KD
[2] = target: GDP-bound HRAS wild-type protein (Homo sapiens, UniProt P01112); assay: Binding to HRAS by surface plasmon resonance (SPR), Single Cycle Kinetics; settings: SPR, GDP-bound HRAS wild-type protein vs GDP-bound KRAS wild-type protein
Chain of GDP-bound HRAS wild-type protein (P01112 whole entry): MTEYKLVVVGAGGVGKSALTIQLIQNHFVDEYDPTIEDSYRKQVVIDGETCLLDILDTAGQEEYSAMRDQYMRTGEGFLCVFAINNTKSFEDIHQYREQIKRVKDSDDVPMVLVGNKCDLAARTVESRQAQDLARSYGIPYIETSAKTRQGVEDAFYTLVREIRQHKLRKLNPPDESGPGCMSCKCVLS

[3] = test system: human lung cancer strain NCI-H441;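 further: cell proliferation inhibition after four days measured by CellTiter-Glo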
[4] = target: GDP-bound NRAS wild-type protein (Homo sapiens, UniProt P01111); assay: Binding to NRAS by surface plasmon resonance (SPR), Single Cycle Kinetics; settings: SPR, GDP-bound NRAS wild-type protein vs GDP-bound KRAS wild-type protein
Chain of GDP-bound NRAS wild-type protein (P01111 whole entry): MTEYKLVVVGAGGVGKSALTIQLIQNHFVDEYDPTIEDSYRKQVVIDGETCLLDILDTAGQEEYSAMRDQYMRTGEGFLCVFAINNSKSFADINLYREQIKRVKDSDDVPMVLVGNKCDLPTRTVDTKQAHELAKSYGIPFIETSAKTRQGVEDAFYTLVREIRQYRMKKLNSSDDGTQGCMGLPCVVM

Chain of GDP-bound KRAS wild-type protein (P01116 whole entry): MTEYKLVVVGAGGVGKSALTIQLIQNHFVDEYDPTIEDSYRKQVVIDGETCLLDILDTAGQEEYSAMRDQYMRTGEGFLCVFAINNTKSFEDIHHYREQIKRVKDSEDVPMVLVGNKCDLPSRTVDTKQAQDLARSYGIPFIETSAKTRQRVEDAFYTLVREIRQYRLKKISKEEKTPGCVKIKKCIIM

Compound | pKd [1] | HRAS/KRAS (ratio of KD value for HRAS to KD value for KRAS) [2] | pIC50 [3] | NRAS/KRAS (ratio of KD value for NRAS to KD value for KRAS) [4]
CCOC[C@H]1C(=O)N[C@@H]([C@@H](C)CC)C(=O)N(C)CC(=O)N(C)[C@H]2C/C=C\CCN(C2=O)[C@@H](Cc2ccc(C(F)(F)F)cc2)C(=O)N(C)CC(=O)N[C@@H](CCc2ccc(C(F)(F)F)c(OC)c2)C(=O)N2C[C@@H](C)C[C@H]2C(=O)N(C)C2(CCC2)C(=O)N(C)[C@@H](C2CCCC2)C(=O)N(C)[C@H](C(=O)N(C)C)CC(=O)N1C [PP2359] | 10.70 | B (a compound having 3 or more and less than 10 is denoted as B) | 8.12 | A (a compound having 10 or more and less than 20 is denoted as A)
CCC[C@H]1C(=O)N[C@@H]([C@@H](C)CC)C(=O)N(C2CC2)CC(=O)N(C)[C@H]2C/C=C\CCN(C2=O)[C@@H](Cc2ccc(C(F)(F)F)cc2)C(=O)N(C)CC(=O)N[C@@H](CCc2ccc(C(F)(F)F)c(OC)c2)C(=O)N2C[C@@H](C)C[C@H]2C(=O)N(C)C2(CCC2)C(=O)N(C)[C@@H](C2CCCC2)C(=O)N(C)[C@H](C(=O)N(C)C)CC(=O)N1C [PP2360] | 9.80 | B (a compound having 3 or more and less than 10 is denoted as B) | 8.54 | A (a compound having 10 or more and less than 20 is denoted as A)
CCC[C@H]1C(=O)N[C@@H]([C@@H](C)CC)C(=O)N2CCC[C@H]2C(=O)N(C)[C@H]2C/C=C\CCN(C2=O)[C@@H](Cc2ccc(C(F)(F)F)cc2)C(=O)N(C)CC(=O)N[C@@H](CCc2ccc(C(F)(F)F)c(OC)c2)C(=O)N2C[C@@H](C)C[C@H]2C(=O)N(C)C2(CCC2)C(=O)N(C)[C@@H](C2CCCC2)C(=O)N(C)[C@H](C(=O)N(C)C)CC(=O)N1C [PP2362] | 10.12 | A (a compound having 10 or more and less than 20 is denoted as A) | 8.32 | A (a compound having 10 or more and less than 20 is denoted as A)
CCOC[C@H]1C(=O)N[C@@H]([C@@H](C)CC)C(=O)N2CCC[C@H]2C(=O)N(C)[C@H]2C/C=C\CCN(C2=O)[C@@H](Cc2ccc(C(F)(F)F)cc2)C(=O)N(C)CC(=O)N[C@@H](CCc2ccc(C(F)(F)F)c(OC)c2)C(=O)N2C[C@@H](C)C[C@H]2C(=O)N(C)C2(CCC2)C(=O)N(C)[C@@H](C2CCCC2)C(=O)N(C)[C@H](C(=O)N(C)C)CC(=O)N1C [PP2363] | 10.21 | B (a compound having 3 or more and less than 10 is denoted as B) | 8.12 | A (a compound having 10 or more and less than 20 is denoted as A)
CCC[C@H]1C(=O)N[C@@H]([C@@H](C)CC)C(=O)N(C)CC(=O)N(C)[C@H]2C/C=C\CCN(C2=O)[C@@H](Cc2ccc(C)cc2)C(=O)N(C)CC(=O)N[C@@H](CCc2ccc(C(F)(F)F)c(OC)c2)C(=O)N2C[C@@H](C)C[C@H]2C(=O)N(C)C2(CCC2)C(=O)N(C)[C@@H](C2CCCC2)C(=O)N(C)[C@H](C(=O)N(C)C)CC(=O)N1C [PP2364] | 10.80 | B (a compound having 3 or more and less than 10 is denoted as B) | 8.34 | A (a compound having 10 or more and less than 20 is denoted as A)
CCCOC[C@H]1C(=O)N[C@@H]([C@@H](C)CC)C(=O)N(C)CC(=O)N(C)[C@H]2C/C=C\CCN(C2=O)[C@@H](Cc2ccc(C)cc2)C(=O)N(C)CC(=O)N[C@@H](CCc2ccc(C(F)(F)F)c(OC)c2)C(=O)N2C[C@@H](C)C[C@H]2C(=O)N(C)C2(CCC2)C(=O)N(C)[C@@H](C2CCCC2)C(=O)N(C)[C@H](C(=O)N(C)C)CC(=O)N1C [PP2365] | 10.70 | B (a compound having 3 or more and less than 10 is denoted as B) | 8.48 | A (a compound having 10 or more and less than 20 is denoted as A)
CCC[C@H]1C(=O)N[C@@H]([C@@H](C)CC)C(=O)N(C2CC2)CC(=O)N(C)[C@H]2C/C=C\CCN(C2=O)[C@@H](Cc2ccc(C)cc2)C(=O)N(C)CC(=O)N[C@@H](CCc2ccc(C(F)(F)F)c(OC)c2)C(=O)N2C[C@@H](C)C[C@H]2C(=O)N(C)C2(CCC2)C(=O)N(C)[C@@H](C2CCCC2)C(=O)N(C)[C@H](C(=O)N(C)C)CC(=O)N1C [PP2366] | 10.32 | A (a compound having 10 or more and less than 20 is denoted as A) | 8.35 | A (a compound having 10 or more and less than 20 is denoted as A)
CCCOC[C@H]1C(=O)N[C@@H]([C@@H](C)CC)C(=O)N(C2CC2)CC(=O)N(C)[C@H]2C/C=C\CCN(C2=O)[C@@H](Cc2ccc(C)cc2)C(=O)N(C)CC(=O)N[C@@H](CCc2ccc(C(F)(F)F)c(OC)c2)C(=O)N2C[C@@H](C)C[C@H]2C(=O)N(C)C2(CCC2)C(=O)N(C)[C@@H](C2CCCC2)C(=O)N(C)[C@H](C(=O)N(C)C)CC(=O)N1C [PP2367] | 10.12 | B (a compound having 3 or more and less than 10 is denoted as B) | 8.68 | A (a compound having 10 or more and less than 20 is denoted as A)
CCC[C@H]1C(=O)N[C@@H]([C@@H](C)CC)C(=O)N2CCC[C@H]2C(=O)N(C)[C@H]2C/C=C\CCN(C2=O)[C@@H](Cc2ccc(C)cc2)C(=O)N(C)CC(=O)N[C@@H](CCc2ccc(C(F)(F)F)c(OC)c2)C(=O)N2C[C@@H](C)C[C@H]2C(=O)N(C)C2(CCC2)C(=O)N(C)[C@@H](C2CCCC2)C(=O)N(C)[C@H](C(=O)N(C)C)CC(=O)N1C [PP2368] | 10.35 | A (a compound having 10 or more and less than 20 is denoted as A) | 8.39 | A (a compound having 10 or more and less than 20 is denoted as A)
CCCOC[C@H]1C(=O)N[C@@H]([C@@H](C)CC)C(=O)N2CCC[C@H]2C(=O)N(C)[C@H]2C/C=C\CCN(C2=O)[C@@H](Cc2ccc(C)cc2)C(=O)N(C)CC(=O)N[C@@H](CCc2ccc(C(F)(F)F)c(OC)c2)C(=O)N2C[C@@H](C)C[C@H]2C(=O)N(C)C2(CCC2)C(=O)N(C)[C@@H](C2CCCC2)C(=O)N(C)[C@H](C(=O)N(C)C)CC(=O)N1C [PP2369] | 10.21 | B (a compound having 3 or more and less than 10 is denoted as B) | 8.35 | A (a compound having 10 or more and less than 20 is denoted as A)
CCC[C@H]1C(=O)N[C@@H]([C@@H](C)CC)C(=O)N(C)CC(=O)N(C)[C@H]2C/C=C\CCN(C2=O)[C@@H](CC2CCCCC2)C(=O)N(C)CC(=O)N[C@@H](CCc2ccc(C(F)(F)F)c(OC)c2)C(=O)N2C[C@@H](C)C[C@H]2C(=O)N(C)C2(CCC2)C(=O)N(C)[C@@H](C2CCCC2)C(=O)N(C)[C@H](C(=O)N(C)C)CC(=O)N1C [PP2370] | 9.27 | B (a compound having 3 or more and less than 10 is denoted as B) | 7.59 | B (a compound having 3 or more and less than 10 is denoted as B)
CCOC[C@H]1C(=O)N[C@@H]([C@@H](C)CC)C(=O)N(C)CC(=O)N(C)[C@H]2C/C=C\CCN(C2=O)[C@@H](CC2CCCCC2)C(=O)N(C)CC(=O)N[C@@H](CCc2ccc(C(F)(F)F)c(OC)c2)C(=O)N2C[C@@H](C)C[C@H]2C(=O)N(C)C2(CCC2)C(=O)N(C)[C@@H](C2CCCC2)C(=O)N(C)[C@H](C(=O)N(C)C)CC(=O)N1C [PP2371] | 9.19 | B (a compound having 3 or more and less than 10 is denoted as B) | 7.38 | A (a compound having 10 or more and less than 20 is denoted as A)
CCC[C@H]1C(=O)N[C@@H]([C@@H](C)CC)C(=O)N(C2CC2)CC(=O)N(C)[C@H]2C/C=C\CCN(C2=O)[C@@H](CC2CCCCC2)C(=O)N(C)CC(=O)N[C@@H](CCc2ccc(C(F)(F)F)c(OC)c2)C(=O)N2C[C@@H](C)C[C@H]2C(=O)N(C)C2(CCC2)C(=O)N(C)[C@@H](C2CCCC2)C(=O)N(C)[C@H](C(=O)N(C)C)CC(=O)N1C [PP2372] | 9.10 | B (a compound having 3 or more and less than 10 is denoted as B) | 8.48 | A (a compound having 10 or more and less than 20 is denoted as A)
CCOC[C@H]1C(=O)N[C@@H]([C@@H](C)CC)C(=O)N(C2CC2)CC(=O)N(C)[C@H]2C/C=C\CCN(C2=O)[C@@H](CC2CCCCC2)C(=O)N(C)CC(=O)N[C@@H](CCc2ccc(C(F)(F)F)c(OC)c2)C(=O)N2C[C@@H](C)C[C@H]2C(=O)N(C)C2(CCC2)C(=O)N(C)[C@@H](C2CCCC2)C(=O)N(C)[C@H](C(=O)N(C)C)CC(=O)N1C [PP2373] | 9.18 | A (a compound having 10 or more and less than 20 is denoted as A) | 8.19 | A (a compound having 10 or more and less than 20 is denoted as A)
CCC[C@H]1C(=O)N[C@@H]([C@@H](C)CC)C(=O)N2CCC[C@H]2C(=O)N(C)[C@H]2C/C=C\CCN(C2=O)[C@@H](CC2CCCCC2)C(=O)N(C)CC(=O)N[C@@H](CCc2ccc(C(F)(F)F)c(OC)c2)C(=O)N2C[C@@H](C)C[C@H]2C(=O)N(C)C2(CCC2)C(=O)N(C)[C@@H](C2CCCC2)C(=O)N(C)[C@H](C(=O)N(C)C)CC(=O)N1C [PP2374] | 9.07 | A (a compound having 10 or more and less than 20 is denoted as A) | 7.17 | A (a compound having 10 or more and less than 20 is denoted as A)

Source: patent publication US20240158446A1, “CYCLIC COMPOUND HAVING SELECTIVE INHIBITORY ACTION ON KRAS OVER HRAS AND NRAS” (CHUGAI SEIYAKU KABUSHIKI KAISHA, priority 2021, published 2024)
